Experimental data reported in PMC6358775, “Elucidation of Vasodilation Response and Structure Activity Relationships of N^2,N^4-Disubstituted Quinazoline 2,4-Diamines in a Rat Pulmonary Artery Model” (Molecules, 2019).
In brackets after ≈: the same amount, converted by molar mass. Like-named read-outs stand apart in the source and are kept apart here.

Legend:
[1] = test system: endothelium-intact rat pulmonary arterial rings; test: Vasorelaxation of PE pre-contracted endothelium-intact (E+) pulmonary arterial rings, organ bath; settings: for Emax / IC50 / EC50: Rattus norvegicus; for IC50: Table S3, endothelium-intact, read-out: E+ Vaso. pIC50 (converted); for EC50: endothelium-intact (E+) rings pre-contracted with 10^-5 M PE, cumulative 0.0001–30 µM, mean (SEM), n = 6, read-out: Vaso E+ EC50 µM (SEM)
[2] = test system: endothelium-denuded rat pulmonary arterial rings; test: Vasorelaxation of PE pre-contracted endothelium-denuded (E−) pulmonary arterial rings, organ bath; settings: for IC50: Table S3, endothelium-denuded, read-out: E- Vaso. pIC50 (converted); for EC50: endothelium-denuded (E−) rings pre-contracted with 10^-5 M PE, cumulative 0.0001–30 µM, mean (SEM), n = 6, read-out: Vaso E− EC50 µM (SEM); for Emax: maximal relaxation, endothelium-denuded rings, up to 30 µM, mean ± SEM
[3] = physchem; settings: for solubility thermodynamic at 6 h: pH 7.4, aqueous buffer, thermodynamic from solid
Procedure: The solubility of the compounds under investigation here were assessed in phosphate buffer at pH 7.4 using the equilibrium shake-flask method.
An equilibrium shake-flask technique was used to determine the solubility of samples in PBS at pH 7.4. Approximately 1 mg of sample was placed in a 10 mL glass screw top vial and dissolved in 1 mL of 0.02 M PBS at pH 7.4. The solution was sonicated for 1 h, followed by shaking for 6 h (IKA HS 260). The saturated solution was then filtered using a nylon syringe filter. A standard solution of each sample was prepared by dissolving a weighed amount of the sample in 1 mL of DMSO. The concentration of sample dissolved in the PBS solution was determined by comparing the peak area of the PBS and DMSO standard using an Agilent 1100 series HPLC with a Sunshell C8 column (Chromanik Technologies Inc., Osaka, Japan). A 100 µL injection of the aqueous sample and 5 µL of DMSO solution (pre-diluted 100 fold using DMSO) were used.

[4] = test system: A549 cells; test: MTT cytotoxicity assay in A549 cells; format: cell-based; settings: Homo sapiens
Procedure: A 3-[4,5-dimehyl-2-thiazolyl]-2,5-diphenyl-2H-tetrazoliumbromide (MTT) assay was utilized to assess the concentration-response curves for quinazoline analogues as previously reported. A549 cells (ATCC CCL-185, human alveolar basal epithelial cell line) were used to account for the general cytotoxicity of compounds. Cells were cultured in DMEM medium containing fetal bovine serum (FBS; 10%), penicillin (10 U/mL), and streptomycin (100 U/mL). The temperature was maintained at 37 °C with 5% CO2. Cells were seeded for 16–18 h in DMEM and incubated for 72 h with the test compounds. After incubation, MTT (5 mg/mL in normal saline) was added with DMEM and incubated for 3 h. Careful decantation of the medium and addition of DMSO (50 µL) was done. Absorbance values were recorded at 570 nm after 5 min mechanical shaking of the microplate (Sunrise microplate reader, Tecan).
The activity was presented as the inhibitory concentration required to produce a 50% response (IC50). Prism 6.0 GraphPad Software Inc., (San Diego, CA, USA) was utilized for data fitting. 0.5% DMSO was used as the negative control.

[5] = test system: PE-induced contraction of endothelium-denuded pulmonary arterial rings; test: Inhibition of phenylephrine (PE)-induced contraction in endothelium-denuded arterial rings; design: species or system rat; settings: 10 µM compound, 15 min pre-incubation, E− rings; for inhibition at 10 µM: Rattus norvegicus, PE 0.0001–100 µM, n = 3–5, read-out: % PE-Contraction Inhibition (SEM); for maximal contraction induced by PE attenuated to: remaining contraction
Procedure: These experiments were undertaken to assess the pharmacological activity of quinazoline analogues against the structurally related α1 receptor blocker (prazosin). In contrast to previous vasorelaxant experiments, this protocol was developed to determine the inhibitory effect of pre-incubated (15 min) inhibitors (10 µM) on the concentration-dependent vasoconstriction induced by cumulative addition of PE (0.0001–100 µM) in endothelium-denuded pulmonary arterial rings. Figure 5 illustrates the real time contractile response shown by the pulmonary arterial ring upon cumulative addition of PE, which evoked a concentration-dependent vasoconstriction, increasing the vessel’s tension.
After anesthesia with thiopental sodium (100 mg/kg, i.p.) (Anesthal®, Jagsonpsal Pharmaceutical Ltd., Haryana, India), rats were euthanized by exsanguination. Lungs were carefully excised, cleaned by the removal of connective tissue, and placed in cold physiological Krebs’ solution composed of (mM): NaCl 122; KCl 5; N-[2-hydroxyethyl] piperazine-N′-[2-ethane-sulfonic acid] (HEPES) 10; KH2PO4 0.5; NaH2PO4 0.5; MgCl2 1; CaCl2 1.8; and glucose 11 adjusted to pH 7.3 using 1 M NaOH. The pulmonary artery was isolated from the lungs and cut into rings approximately 2 mm in length before mounting in the organ bath chambers. Endothelial cells were mechanically removed in some experiments by gentle rubbing of the inner surface with forceps. Pulmonary arterial rings were mounted on intraluminal wires via stainless steel hooks maintaining the resting tension at 1 g and rings were equilibrated for 30 min before obtaining a stable contraction with 10^−5 M phenylephrine (PE). The rings were immersed in 10 mL baths containing physiological Krebs’ solution at 37 °C, which was continuously bubbled with air. Force transducers were connected with intraluminal wires to measure isometric tension via a Mac Lab A/D converter (Chart V5, A.D. Instruments, Castle Hill, NSW, Australia). The functional integrity of the endothelium in the vessels was confirmed by vasorelaxation of ≥70% with sequential addition of 10^−5 M acetylcholine (ACh) to pre-contracted vessels with 10^−5 M PE. Relaxations ≤30% to 10^−5 M ACh in vessels rubbed mechanically were considered successfully endothelium denuded.
The protocol included the assessment of the inhibitory vasoconstriction effect of quinazoline test compounds on endothelium-denuded arterial rings. Briefly, the arterial rings were treated with the α1-receptor blocker (prazosin) or test compound at a concentration of 10 µM for 15 min before construction of the second concentration response curve with cumulative addition of PE (0.0001–100 µM). The same conditions were used to test the effects of the solvent (DMSO 0.2%). The results were obtained in percentages by comparison of the maximum contraction without treatment with the contraction in the presence of the test compound [24, 36, 37].

[6] = maximal relaxation, endothelium-intact rings, up to 30 µM, mean ± SEM
[7] = A549, MTT, 72 h incubation, read-out: A549 IC50, µM (S.D.)
[8] = Table S3, A549, read-out: Cytox. pIC50 (converted)

SMILES	IC50 [1]	EC50 [1]	IC50 [2]	EC50 [2]	Log Sol ([3]; 6 h, pH 7.4)	Sol. pH7.4 (µM) ([3]; 6 h, pH 7.4)	solubility thermodynamic at 6 h [3]	Emax [1, 6]	Emax [2]	IC50 [4, 7]	IC50 [4, 8]	inhibition at 10 µM [5]	maximal contraction induced by PE attenuated to [5]	E+ Emax (%) [1, 6]	Sol. pH7.4 mg/mL ([3]; PBS pH 7.4, shake-flask)	Sol. pH7.4 (µM) ([3]; PBS pH 7.4, shake-flask, value in brackets)	solubility thermodynamic at 6 h ([3]; phosphate buffered saline (PBS))
c1ccc(CNc2nc(Nc3ccccc3)nc3ccccc23)cc1 [Compound 1]	5.5 µM	5.54 µM	13.5 µM	13.5 µM	-0.39	0.41 µM	130 µg/mL (≈ 398 µM)	90 ± 5.64%	86.4 ± 4.03%	12.3 µM	12.3 µM						
c1ccc(CNc2nc(Nc3ccc(N4CCOCC4)cc3)nc3ccccc23)cc1 [Compound 2]	5.01 µM	4.98 µM	12 µM	12 µM	-0.22	0.60 µM	250 µg/mL (≈ 608 µM)	94.7 ± 3.33%	85.7 ± 6.05%	12.1 µM	12 µM	56.6%	43.38 ± 5.90%				
CN(C)S(=O)(=O)c1ccc(Nc2nc(NCc3ccccc3)c3ccccc3n2)cc1 [Compound 3]	3.55 µM	3.59 µM	6.31 µM	6.25 µM	-0.06	0.88 µM	380 µg/mL (≈ 877 µM)	82.4 ± 5.9%	64.3 ± 5.31%	18.3 µM	18.2 µM						
NS(=O)(=O)c1ccc(Nc2nc(NCc3ccccc3)c3ccccc3n2)cc1 [Compound 4]	3.16 µM	3.13 µM	8.32 µM	8.29 µM	-1.52	0.03 µM	10 µg/mL (≈ 24.7 µM)	88.5 ± 5.58%	78.5 ± 9.19%	23 µM	22.9 µM						
c1ccc(Nc2nc(NCc3cccs3)c3ccccc3n2)cc1 [Compound 6]	9.33 µM	9.42 µM	9.33 µM	9.51 µM	-0.40	0.40 µM	130 µg/mL (≈ 391 µM)	88 ± 7.39%	91.2 ± 5.26%	27.8 µM	27.5 µM						
O=C(Nc1ccccc1)Nc1ccc(Nc2nc(NCc3cccs3)c3ccccc3n2)cc1 [Compound 7]	4.07 µM	4.1 µM	> 30 µM	> 30 µM	-0.66	0.22 µM	100 µg/mL (≈ 214 µM)	76 ± 5.73%	22.3 ± 4.4%	2.91 µM	2.88 µM	43.6%	57.57 ± 5.99%				
NC(=O)c1cccc(Nc2nc(NCc3cccs3)c3ccccc3n2)c1 [Compound 12]	4.17 µM	4.15 µM	8.13 µM	8.15 µM	-0.25	0.56 µM	210 µg/mL (≈ 559 µM)	98.7 ± 1.31%	87.1 ± 3.63%	15.4 µM	15.5 µM						
NS(=O)(=O)c1cccc(Nc2nc(NCc3ccco3)c3ccccc3n2)c1 [Compound 13]	6.61 µM	6.61 µM	3.02 µM	3.02 µM	-0.42	0.38 µM	150 µg/mL (≈ 379 µM)	95.5 ± 2.17%	95.6 ± 2.75%	26.9 µM	26.9 µM	45.9%	54.07 ± 11.69%				
CCCc1nn(C)c2c(=O)[nH]c(-c3cc(S(=O)(=O)N4CCN(C)CC4)ccc3OCC)nc12 [Sildenafil (SIL), Sildenafil, reference compound]		0.14 µM		0.89 µM				97.8 ± 2.19%	85.8 ± 6.41%			58.3%			20.83 mg/mL	43.88 µM	20800 µg/mL (≈ 43900 µM)

Now from value to compound, other results behind:

IC50 [1]	EC50 [1]	IC50 [2]	EC50 [2]	Log Sol ([3]; 6 h, pH 7.4)	Sol. pH7.4 (µM) ([3]; 6 h, pH 7.4)	solubility thermodynamic at 6 h [3]	SMILES	Emax [1, 6]	Emax [2]	IC50 [4, 7]	IC50 [4, 8]	inhibition at 10 µM [5]	maximal contraction induced by PE attenuated to [5]	E+ Emax (%) [1, 6]	Sol. pH7.4 mg/mL ([3]; PBS pH 7.4, shake-flask)	Sol. pH7.4 (µM) ([3]; PBS pH 7.4, shake-flask, value in brackets)	solubility thermodynamic at 6 h ([3]; phosphate buffered saline (PBS))
1.62 µM	1.63 µM	1.15 µM	1.15 µM	0.14	1.37 µM	560 µg/mL (≈ 1380 µM)	NS(=O)(=O)c1cccc(Nc2nc(NCc3ccccc3)c3ccccc3n2)c1 [Compound 5]	91.7 ± 3.77%	95.8 ± 2.4%	11.2 µM	11.2 µM						
0.575 µM	0.58 µM	8.51 µM	8.5 µM	-0.32	0.48 µM	200 µg/mL (≈ 479 µM)	c1csc(CNc2nc(Nc3ccc(N4CCOCC4)cc3)nc3ccccc23)c1 [Compound 8]	98.8 ± 0.79%	100%	11.4 µM	11.5 µM	42.4%	56.38 ± 7.10%	98.88 ± 0.79%			
1.02 µM	1.03 µM	1.74 µM	1.72 µM	-0.80	0.16 µM	60 µg/mL (≈ 146 µM)	NS(=O)(=O)c1ccc(Nc2nc(NCc3cccs3)c3ccccc3n2)cc1 [Compound 9]	98.4 ± 1.4%	82.1 ± 8.43%	32.7 µM	32.4 µM						
1.45 µM	1.46 µM	5.13 µM	5.15 µM	0.08	1.20 µM	450 µg/mL (≈ 1200 µM)	NC(=O)c1ccc(Nc2nc(NCc3cccs3)c3ccccc3n2)cc1 [Compound 10]	90.2 ± 6.48%	90.4 ± 5.3%	28.3 µM	28.2 µM						
2.29 µM	2.28 µM	11 µM	10.9 µM	-0.47	0.34 µM	140 µg/mL (≈ 340 µM)	NS(=O)(=O)c1cccc(Nc2nc(NCc3cccs3)c3ccccc3n2)c1 [Compound 11]	98.7 ± 1.26%	87.4 ± 4.66%	15 µM	15.1 µM						
